The IC50 is the concentration at which inhibition is half-maximal.

Data set [1] deals with HCT 116 human colon cancer cells. The experiment in a line: MTT cell viability assay, HCT 116. Conditions: for IC50: 48 h. Format: cell-based. Background: Tetrazolium dyes change colour on reduction, which living cells bring about.
Procedure: HIEC6 human healthy intestinal cells and HCT 116 and HT-29 human colon cancer cells were supplied by ATCC. Colon cancer cells were cultured in Dulbecco’s modified Eagle’s medium (DMEM) for HCT 116 and HT-29 supplemented with fetal bovine serum (10%). HIEC6 cells were cultured in Opti-MEM supplemented with fetal bovine serum (4%), HEPES (20 mM), glutamine (10 mM), and epidermal growth factor (10 ng/mL). Cells were maintained at 37 °C in a humidified atmosphere containing 5% CO2. Cells were seeded at 30% confluence in DMEM for HCT 116 and in Opti-MEM for HIEC6; after cell adhesion, HIEC6 cells were cultured in DMEM for 24h before being treated. All cells were treated with the indicated components at concentrations of 0.25–50 μM and incubated for 1–5 days as specified.
The MTT assay relies on a colorimetric reaction based on the capacity of living cells to reduce MTT to formazan and change the color to purple, which is easily measured by colorimetry. This assay estimates the cellular viability after the indicated treatments. Cells were treated with MTT (1:10 in culture medium) and incubated at 37 °C for 3 h for HCT 116 and HT-29 or 6 h for HIEC6. After removal of the medium, the formazan was resuspended in DMSO, transferred to p96 plates, and analyzed by a SpectraFLUOR (Tecan) at 542 nm. In all cases, viability was measured in duplicates of each point in three independent experiments.
The subject of data set [2] is HT-29 human colon cancer cells. The following applies: MTT, Figure S14E. The protocol:
Cells were maintained at 37 °C in a humidified atmosphere containing 5% CO2.

Data set [3] has as its system HCT 116 cancer cells. The following applies: data not shown. The protocol: Cell were trypsinized, centrifuged at 500g for 5 min, resuspended in PBS, and stained with 7-aminoactinomycin D (7AAD, Santa Cruz Biotechnology), a DNA intercalating dye excluded from viable cells due to membrane impermeability. The 7AAD was excited at 546 nm and analyzed at 656 nm. Only apoptotic and necrotic cells are stained by these dyes. After incubation for 50 min in the dark at 37 °C, the cells were analyzed by flow cytometry (CytoFlex, Beckman Coulter). The percentages of cells stained with or without dyes were analyzed using the CytExpert Software (Beckman Coulter).

Data set [4] can be described thus: 195Pt NMR reduction kinetics with glutathione. Conditions: GSH 4:1 excess, DMSO/D2O (4:1), 37 °C, 2, 6, 24 h. The format is physicochemical. On the procedure: AsA presents an intracellular concentration of 1 mM, whereas the GSH concentration is 2 mM.[38] This reactivity was monitored by ^195Pt NMR at different times. Thus, by analyzing the different regions where the signals of Pt(II)/Pt(IV) species appear, it is possible to identify and assign the different compounds formed during the reaction. In most cases, the regions where the Pt(II) and Pt(IV) signals appear are separated by more than 3000 ppm.[33]
The reactivity of both complexes toward the reducing agent GSH was also studied using the DMSO/D2O (4:1) mixture. […] In the Pt(II) region, two signals appeared after 24 h at −2728 and −3405 ppm (Figure 2G). The first value is consistent with the cis-PtN2SX fraction,[41],[42] meaning that this species, once reduced to its Pt(II) homologue, coordinates with GSH by displacing a chloride ligand. The second signal corresponds to another Pt(II) moiety with more than one ligand containing sulfur atoms. […]
Each solution was then slowly added to 100 μL of a solution of the corresponding reducing agent (AsA or GSH in an excess of 4:1 against each complex) in D2O at 37 °C. […] Each sample was monitored by ^195Pt NMR at 2, 6, and 24 h.

Data set [5] deals with histone gH2Ax foci at double-strand DNA breaks in HCT 116 cells. Put plainly: Immunofluorescence of histone gH2Ax DNA damage foci. Format: cell-based, human. Conditions: HCT 116, 0.5 μM, 48 h. On the procedure: Confocal imaging of the DNA damage response was followed by immunofluorescence of histone gH2Ax foci at double-strand DNA breaks (DSB) (Figure 4A). […] However, none of the Pt(IV) prodrugs were able to increase p53 levels even at concentrations higher than those needed to reduce cell viability.
Cells in coverslips were washed three times and fixed with 4% paraformaldehyde in PBS (pH 7.4) for 10 min, washed again, permeabilized (PBS [pH7.4], 0.5% Triton X-100, 0.2% BSA) for 5 min, blocked (PBS [pH7,4], 0,05% Triton X-100, 5% BSA) for 1 h at room temperature, and incubated with primary antibody overnight at 4 °C. After three washes (5 min), cells were incubated with secondary antibody for 1 h at room temperature, and the nuclei were stained with 4,6-diamidino-2-phenylindole (DAPI, 1:10,000, Invitrogen) for 10 min. Slides were mounted, and images were acquired using an FV3000 confocal microscope (Olympus) with a 63× objective. The antibodies rabbit monoclonal anti-Histone H2A.X (D17A3) (dilution 1:400) and mouse monoclonal anti-Lamin A/C (4C11) (dilution 1:400) were purchased from Cell Signaling (Danvers, Massachusetts, USA). Donkey Anti-Rabbit-Alexa Fluor 488 (dilution 1:500) and Donkey Anti-Mouse-Alexa Fluor 594 (dilution 1:500) were purchased from Invitrogen (Barcelona, Spain).

Structures are written as SMILES. Read-outs that look alike come from different tables or passages of the source.

Consider `CC(C)N.CC(C)N.CCO[Si](CCCNC(=O)[O][Pt]([Cl])([Cl])[O]C(=O)NCCC[Si](OCC)(OCC)OCC)(OCC)OCC` [Pt(IV)-biSi-2, cis-Dichloro(diisopropylamine)-trans-[3-(triethoxysilyl)propylcarbamate]platinum(IV)], for which the “Fold greater cytotoxicity than cisplatin, HCT 116” value in data set [1] (5 μM, 5 days chronic treatment) is 8–10 fold. For the same molecule, the “Cell viability, HCT 116 0.5uM 2 days” value in data set [1] (MTT, 0.5 uM, 2 days) is recorded as 49.4 ± 3.2%. In addition, the “Reduction of viability (cytotoxicity) of HCT 116 tumor cells” value in data set [1] (MTT, 0.5 μM, 2 days) is on record as 50%. Besides, in data set [1] (MTT, 0.5 uM, 5 days), the “Cell viability, HCT 116 0.5uM 5 days” value is on record as 60.2 ± 14.4%. Further, the “Reduction of tumor cell viability (HCT 116)” value in data set [1] (MTT, 0.5 μM, 5 days) is 40%. Moreover, the “Reduction in viability of cancer cells (HCT 116)” value in data set [1] (MTT, 5 μM, 2 days) came to 90%. Besides, the “Cell viability, HCT 116 5uM 2 days” value in data set [1] (MTT, 5 uM, 2 days, (final complexes, Figure 3B)) was determined as 4.4 ± 0.8%. In addition, in data set [1] (MTT, 5 μM, 5 days chronic treatment), the “Cells survived, HCT 116” value worked out at 5%. The IC50 turned out to be 0.94 µM in data set [1] (MTT, Figure 3C and text, read-out: IC50 (μM), HCT 116); 0.9 ± 0.6 µM in data set [1] (MTT, supplementary CSV, read-out: IC50 (uM) HCT 116). Moreover, the “Cell viability, HCT 116 […] 2 days” value in data set [1] (MTT, 2 days) was 59.6 ± 2.9%; in data set [1] (MTT, second (last) column of this head) it was 59.1 ± 0.8%. The “Cytotoxic effect on colon cancer cells (HT-29)” value in data set [2] is “strong cytotoxic effect”. Further, the “Cytotoxicity by flow cytometry, HCT 116” value in data set [3] was “stronger effect”. For the same molecule, the “Reduction of the Pt(IV) complex by GSH (Pt(IV) signal in 195Pt NMR)” value in data set [4] is listed as “practically disappeared after 24 h”. Also, the “Unresolved DSB / histone H2Ax foci” value in data set [5] is “foci were retained at 48 h”.

The values above are taken from paper PMC11056991, “Promising Anticancer Prodrugs Based on Pt(IV) Complexes with Bis-organosilane Ligands in Axial Positions” (Journal of Medicinal Chemistry, 2024).
